Assays:
Assay type in all cases: in vivo
[1] = test system: Papaver rhoeas; assay: greenhouse post-emergence treatment, PAPRH
Method in brief: (§1)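 Post-emergence greenhouse spray on 3–15 cm plants, sown direct or transplanted a few days before treatment. Scored visually on a 0–100 scale after 2 to 4 weeks; expected additive effect computed by Colby: E=X+Y−(X·Y/100).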

[2] = test system: Matricaria chamomilla; assay: greenhouse post-emergence treatment, MATCH
Method in brief: as §1

[3] = test system: Lolium multiflorum; assay: greenhouse post-emergence treatment, LOLMU
Method in brief: (§2)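 Seeds sown per species in loamy sand substrate (about 3.0% humus); some raised separately and transplanted shortly before treatment. Treatments applied in water post-emergence, plants held at 10-25° C. or 20-35° C. by species, then scored after 2 to 4 weeks, where 100 means total kill and 0 no damage.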

[4] = test system: Polygonum convolvulus; assay: greenhouse post-emergence treatment, POLCO
Experimental: (§3) The culture containers used were plastic pots containing loamy sand with approximately 3.0% of humus as substrate. The seeds of the test plants were sown separately for each species.
(§4) For the post-emergence treatment, the test plants were grown to a plant height of from 3 to 15 cm, depending on the plant habit, and only then treated with the active compounds which had been suspended or emulsified in water. To this end, the test plants were either sown directly, and grown in the same containers, or they were first grown separately as seedlings and transplanted into the test containers a few days prior to treatment.
(§5) Depending on the species, the plants were kept at 10-25° C. and 20-35° C., respectively.
(§6) The test period extended over 2 to 4 weeks. During this time, the plants were tended and their response to the individual treatments was evaluated.
(§7) Evaluation was carried out using a scale from 0 to 100. 100 means no emergence of the plants, or complete destruction of at least the above-ground parts, and 0 means no damage or normal course of growth. A good herbicidal activity is given at values of at least 70, and very good herbicidal activity is given at values of at least 85.
(§8) The respective stated components A and B, and if appropriate, C were formulated as a 10% by weight strength emulsion concentrate and, with addition of the amount of solvent system, introduced into the spray liquor used for applying the active compound. In the examples, the solvent used was water.
(§9) In the examples below, using the method of S. R. Colby (1967) “Calculating synergistic and antagonistic responses of herbicide combinations”, Weeds 15, p. 22ff., the value E, which is expected if the activity of the individual active compounds is only additive, was calculated. E=X+Y−(X·Y/100) where X=effect in percent using herbicide A at an application rate a; • Y=effect in percent using herbicide B at application rate b; • E=expected effect (in %) of herbicide A+herbicide B at application rates a+b.

[5] = test system: Setaria viridis; assay: greenhouse post-emergence treatment, SETVI
Method in brief: as §2

[6] = test system: Galium aparine; assay: greenhouse post-emergence treatment, GALAP; conditions: 20 DAT
Method in brief: as §1

[7] = test system: Stellaria media; assay: greenhouse post-emergence treatment, STEME; conditions: 20 DAT, mesosulfuron solo 1 gai/ha
Method in brief: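 Scale 0–100 damage rating (100 = complete destruction of above-ground parts, 0 = normal growth), read 2 to 4 weeks after post-emergence application of aqueous spray liquor to plants 3–15 cm tall.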

[8] = test system: Echinocloa crus-galli; assay: greenhouse post-emergence treatment, ECHCG
Experimental: as §3, §4, §5, §6, §7, §8, §9

[9] = test system: Digitaria sanguinalis; assay: greenhouse post-emergence treatment, DIGSA
Method in brief: as §2

[10] = test system: Ambrosia elatior; assay: greenhouse post-emergence treatment, AMBEL
Experimental: as §3, §4, §5, §6, §7, §8, §9

[11] = test system: Poa annua; assay: greenhouse post-emergence treatment, POAAN; conditions: 21 DAT
Experimental: as §3, §4, §5, §6, §7, §8, §9

[12] = test system: Alopecurus myosuroides; assay: greenhouse post-emergence treatment, ALOMY; conditions: 21 DAT
Method in brief: as §2

[13] = test system: Bromus sterilis; assay: greenhouse post-emergence treatment, BROST; conditions: 21 DAT
Method in brief: as §2

[14] = test system: Apera spica-venti; assay: greenhouse post-emergence treatment, APESV; conditions: 21 DAT
Experimental: as §3, §4, §5, §6, §7, §8, §9

[15] = 20 DAT, mesosulfuron solo 1 gai/ha
[16] = 20 DAT, mesosulfuron solo 2 gai/ha
[17] = 20 DAT, mesosulfuron solo 8 gai/ha
[18] = 20 DAT, mesosulfuron solo 4 gai/ha
[19] = 21 DAT, topramezone solo 12 gai/ha
[20] = 21 DAT, topramezone solo 24 gai/ha
[21] = 21 DAT, topramezone solo 6 gai/ha
[22] = 21 DAT, topramezone solo 3 gai/ha

COC(=O)c1ccc(CNS(C)(=O)=O)cc1S(=O)(=O)NC(=O)Nc1nc(OC)cc(OC)n1 [mesosulfuron]
% activity [1, 15]: 70% | % activity [1, 16]: 90% | % activity [1, 17]: 98% | % activity ([1]; mesosulfuron solo (Mesosulfuron - Methyl WG […]), 1 gai/ha, 20 DAT, PAPRH): 70% | % activity [2, 15]: 30% | % activity [2, 16]: 30% | % activity [2, 17]: 90% | % activity ([2]; 20 DAT, mesosulfuron solo 9 gai/ha): 90% | % activity ([2]; mesosulfuron solo (Mesosulfuron - Methyl WG […]), 2 gai/ha, 20 DAT, MATCH): 30% | % activity [3, 17]: 90% | % activity [4, 16]: 30% | % activity [5, 17]: 85% | % activity ([5]; mesosulfuron solo (Mesosulfuron - Methyl WG […]), 8 gai/ha, 20 DAT, SETVI): 85% | % activity ([6]; mesosulfuron solo 4 gai/ha): 65% | % activity ([6]; mesosulfuron solo 8 gai/ha): 75% | % activity ([6]; mesosulfuron solo (Mesosulfuron - Methyl WG […]), 1 gai/ha, GALAP): 55% | % activity ([6]; mesosulfuron solo (Mesosulfuron - Methyl WG […]), 2 gai/ha, GALAP): 65% | % activity ([6]; mesosulfuron solo (Mesosulfuron - Methyl WG […]), 4 gai/ha, GALAP): 65% | % activity ([6]; mesosulfuron solo (Mesosulfuron - Methyl WG […]), 8 gai/ha, GALAP): 75% | % activity [7]: 95% | % activity [8, 16]: 0% | % activity [9, 15]: 0% | % activity [9, 16]: 0% | % activity [9, 18]: 20% | % activity [10, 16]: 80% | % activity [10, 18]: 85%

Cc1c(C(=O)c2cnn(C)c2O)ccc(S(C)(=O)=O)c1C1=NOCC1 [topramezone]
% activity ([11]; topramezone solo 3 gai/ha): 0% | % activity ([11]; topramezone solo 6 gai/ha): 0% | % activity ([11]; topramezone solo 12 gai/ha): 0% | % activity ([11]; topramezone solo 24 gai/ha): 0% | % activity ([11]; POAAN, solo topramezone (SC 336 g/l) 3 gai/ha): 0% | % activity ([11]; POAAN, solo topramezone (SC 336 g/l) 6 gai/ha): 0% | % activity ([11]; POAAN, solo topramezone (SC 336 g/l) 12 gai/ha): 0% | % activity ([11]; POAAN, solo topramezone (SC 336 g/l) 24 gai/ha): 0% | % activity ([12]; topramezone solo 3 gai/ha): 0% | % activity ([12]; topramezone solo 6 gai/ha): 0% | % activity ([12]; topramezone solo 12 gai/ha): 0% | % activity ([12]; topramezone solo 24 gai/ha): 10% | % activity ([12]; ALOMY, solo topramezone (SC 336 g/l) 3 gai/ha): 0% | % activity ([12]; ALOMY, solo topramezone (SC 336 g/l) 6 gai/ha): 0% | % activity ([12]; ALOMY, solo topramezone (SC 336 g/l) 12 gai/ha): 0% | % activity [1, 19]: 20% | % activity [1, 20]: 40% | % activity ([1]; PAPRH, solo topramezone (SC 336 g/l) 3 gai/ha, 21 DAT): 0% | % activity ([1]; PAPRH, solo topramezone (SC 336 g/l) 6 gai/ha, 21 DAT): 0% | % activity [2, 21]: 30% | % activity [3, 22]: 0% | % activity [3, 21]: 0% | % activity [3, 19]: 10% | % activity [3, 20]: 20% | % activity ([3]; LOLMU, solo topramezone (SC 336 g/l) 6 gai/ha, 21 DAT): 0% | % activity [4, 22]: 0% | % activity [4, 21]: 30% | % activity [4, 19]: 30% | % activity [4, 20]: 85% | % activity [5, 22]: 70% | % activity ([8]; ECHCG, solo topramezone (SC 336 g/l) 3 gai/ha, 21 DAT): 70% | % activity ([8]; ECHCG, solo topramezone (SC 336 g/l) 12 gai/ha, 21 DAT): 98% | % activity ([8]; ECHCG, solo topramezone (SC 336 g/l) 24 gai/ha, 21 DAT): 98% | % activity [9, 22]: 75% | % activity ([13]; topramezone solo 3 gai/ha): 0% | % activity ([13]; topramezone solo 6 gai/ha): 0% | % activity ([13]; topramezone solo 12 gai/ha): 5% | % activity ([13]; topramezone solo 24 gai/ha): 25% | % activity ([14]; topramezone solo 3 gai/ha): 0% | % activity ([14]; topramezone solo 6 gai/ha): 0% | % activity ([14]; topramezone solo 12 gai/ha): 30% | % activity [10, 21]: 95%

Reference: patent publication US10966426B2, “Herbicidal compositions comprising phenylpyrimidines” (BASF SE, priority 2016, dated 2021)
